Experimental data from patent publication USRE37770E1, “Treatment of skin conditions by use of PPARα activators” (The Regents of the University of California, priority 1997, dated 2002).

Tests used:
fetal rodent skin = settings: earlier studies (Hanley et al. 1996); cited from earlier work
[1] = system: Skin explants from gestational day 17 rats; assay: Light and electron microscopy of fetal rat skin explants (epidermal maturation); assay type: cell-based
Experimental: Samples for light microscopy were fixed in modified Karnovsky's solution, plastic-embedded, and 0.5 μm sections were stained with toluidine. Samples for electron microscopy were minced into 1 mm^3 pieces, fixed in modified Karnovsky's fixative, and processed. Sections were stained with uranyl acetate and lead citrate, post-fixed in ruthenium tetroxide, and examined using a Zeiss 10A electron microscope.
Explants incubated in various media woe examined by light microscopy. The incubation di included control medium (containing no activators) and various media individually containing 300 μM clofibrate, 100 μM juvenile hormone III, 300 μM oleic acid, 30 μM linoleic acid, 50 μM farnesol, and various concentrations of 9-cis-retinoic acid, all-trans-retinoic acid, and 1,25-dihydroxy vitamin D3.
Observations were then made of the ultrastructural maturation of the outer epidermis in explants that had been incubated in the various media and then post-fixed in ruthenium tetroxide. Media identical to those of the preceding paragraph were used, excluding the retinoic acid-containing and 1,25-dihydroxy vitamin D3-containing media.

β-Glucocerebrosidase = β-Glucocerebrosidase activity in epidermis of treated fetal rat skin explants; assay type: cell-based, rats; settings: clofibrate (300 μM), juvenile hormone III (100 μ), mean of five ± SEM
Experimental: (§1) Epidermis was separated from dermis after incubation in 10 mM ethylenediamine tetraacetic acid (EDTA) in Ca^++- and Mg^++-free phosphate-buffered saline (PBS), pH 7.4, at 37° C. for 30-40 minutes. The tissues were then minced, and homogenized on ice (three times at 15 seconds each with a Polytron homogenizer, followed by sonication twice at ten seconds each at 35% power) in either PBS containing 0.1 mM phenylmethylsulfonyl fluoride (PMSF) and 0.1% Triton X-100 (for β-glucocerebrosidase) or in 10 mM Tris (PH 7.5) containing 0.15 M sucrose and 2 mM EDTA (for steroid sulfatase). β-Glucocerebrosidase activity was measured in the supernatant following centrifugation at 10,000×g for fifteen minutes at 4° C. Steroid sulfatase activity was measured in the microsomal fraction resulting from a […] centrifugation (10 minutes, 4° C.) followed by 60 minutes of 100,000×g ultracentrifugation at 4° C. Protein content was measured by conventional techniques.
β-Glucocerebrosidase) activity was assayed using the synthetic substrate 4-methylumbelliferyl β-D-glucoside (4-MUG). The assays were performed in 5 mM sodium taurocholate in citrate-phosphate buffer (pH 5.6) with 0.5 mM 4-MUG for sixty minutes at 37° C., with a final assay volume of 100 μL, and protein concentration of 1-2 mg/mL. The reaction was terminated with 2 mL of carbonate-bicarbonate buffer (pH 10.5). The fluorescence was then measured at […] (excitation) and 450 λ (emission) and compared with a standard 4-methylumbelliferone (4-MU) curve.
(§2) Skin explants from 17-day fetal rats were incubated for 24 or 48 hours in media individually containing clofibrate (300 μM) and juvenile hormone III […], and control media. Enzyme activity was measured and the results are presented in Table I as the mean values of five determinations±SEM (standard error of the mean). All p values are ≦0.005 compared with controls of the same time period.

[2] = system: Normal human keratinocytes; assay: Cornified envelope formation (35S incorporation) in keratinocytes; assay type: cell-based; settings: 15 μM, 0.03 mM calcium, 48-hour
[3] = system: full-thickness flank skin from the fetal rats; assay: Transepidermal water loss (TEWL) of fetal rat skin explants in organ culture (barrier function); assay type: cell-based, Sprague-Dawley rats
Experimental: Timed pregnant Sprague-Dawley rats (plug date=day 0) were obtained from Simonsen (Gilroy, Calif., USA) and fetuses were delivered prematurely on day 17. Transepidermal water loss (TEWL) was measured in excised full-thickness flank skin from the fetal rats after various times in culture. The skin explants were placed dermis-side down onto collagen membrane inserts (3μ pore size) in medium M-199 (serum-free), and submerged, and the lateral edges and dermal surface were sealed with petrolatum, such that water loss occurred only through the epidermal surface. Explant samples were weighed hourly, at ambient temperature (24±3° C.) and humidity (40±5%), over 6 hours using a Cahn balance (sensitivity 0.001 mg). TEWL levels are reported as milligrams of water lost per square millimeter of epidermal surface per hour. Fatty acids and clofibrate (p-chlorophenoxyisobutyric acid) were added to the medium bound to 0.5% (weight/volume) bovine serum albumin (BSA). Isoprenoids and oxysterols were added in ethanol (≦0.1%) and juvenile hormone III was added as a dimethylsulfoxide (DMSO) solution (≦0.1%). Control explants were incubated in the presence of the appropriate vehicle (≦0.1% DMSO or ethanol, and/or ≦0.5% BSA). Skin explants from gestational day 17 rats were incubated in the presence of either various activators or vehicle, and transepidermal water loss was measured after two days. The activators and the concentrations at which they were used were as follows: […]

Steroid Sulfatase = assay: Steroid sulfatase activity in epidermis of treated fetal rat skin explants; assay type: cell-based, rats; settings: clofibrate (300 μM), juvenile hormone III (100 μ), mean of five ± SEM
Experimental: as §1
Steroid sulfatase activity was measured by incubating 100 μg of microsomal protein in 0.1 M Tris containing 5.6 mM glucose (pH 7.4) with 15 μM, (^3H) dihydroepiandrosterone sulfate (DHEAS) (15 μCi) in a final volume of 1.1 mL The product, (^3H) DHEA, was extracted with benzene and an aliquot counted by scintillation spectrophotometry.
as §2

## CC1=C(/C=C/C(C)=C/C=C/C(C)=C/C(=O)O)C(C)(C)CCC1 [all-trans-retinoic acid]
Fetal rodent skin
  acceleration of the appearance of a mature barrier in fetal rodent skin: had no effect
[1]; various concentrations
  light microscopy of the epidermis: did not exhibit a distinct stratum corneum

## C=C1/C(=C\C=C2/CCC[C@]3(C)[C@@H]([C@H](C)CCCC(C)(C)O)CC[C@@H]23)C[C@@H](O)C[C@@H]1O [1,25-dihydroxyvitamin D3]
Fetal rodent skin
  acceleration of the appearance of a mature barrier in fetal rodent skin: had no effect
[1]; various concentrations
  light microscopy of the epidermis: did not exhibit a distinct stratum corneum

## CC1=C(/C=C/C(C)=C\C=C\C(C)=C\C(=O)O)C(C)(C)CCC1 [9-cis-retinoic acid]
Fetal rodent skin
  acceleration of the appearance of a mature barrier in fetal rodent skin: had no effect
[1]; various concentrations
  light microscopy of the epidermis: did not exhibit a distinct stratum corneum

## COC(=O)C=C(C)CCC=C(C)CCC1OC1(C)C (stereo not drawn) [juvenile hormone III, 7-methyl-9-(3,3-dimethyloxiranyl)-3-methyl-2,6-nonadienoic acid methyl ester]
β-Glucocerebrosidase; 24-Hour Incubation
  β-Glucocerebrosidase Activity: 2.89 ± 0.20 nmol/min/mg
β-Glucocerebrosidase; 48-Hour Incubation
  β-Glucocerebrosidase Activity: 5.20 ± 0.62 nmol/min/mg
[2]
  rate of cornified envelope formation: substantial increases in the rate of cornified envelope formation
[1]; 100 μM, 48 hours
  light microscopy of the epidermis: had both a multi-layered stratum granulosum and a stratum corneum
[3]; 100 μM, two days
  effect on TEWL / barrier formation: significantly accelerated barrier formation
[3]; Rattus norvegicus, dose response, FIGS. 4a-4c, read-out: concentration of half-maximal effect on barrier development (TEWL)
  EC50: ~75 µM
[3]; dose response, FIGS. 4a-4c
  concentration of maximal effect on barrier development (TEWL): approximately 250 μM
Steroid Sulfatase; 24-Hour Incubation
  Steroid Sulfatase Activity: 12.55 ± 1.25 pmol/h/mg
Steroid Sulfatase; 48-Hour Incubation
  Steroid Sulfatase Activity: 18.23 ± 2.35 pmol/h/mg
